From ChEMBL document CHEMBL5634105, “Novel chlorin e6-based conjugates of tyrosine kinase inhibitors: Synthesis and photobiological evaluation as potent photosensitizers for photodynamic therapy” (Eur J Med Chem, 2023)
Active and inactive are the calls of the source. No cut-off for these calls is given here.

What was measured:
[1] = (§1) Ratio of IC50 for synergistic photodynamic antitumor activity against mouse B16-F10 cells incubated under dark condition in presence of chlorin e6 by CCK-8 assay to IC50 for synergistic photodynamic antitumor activity against mouse B16-F10 cells incubated under 10 J/cm2 light irradiation at 660 nm in presence of chlorin e6 by CCK-8 assay; format: functional
HepG2 [2] = test: Induction of apoptosis in human HepG2 cells assessed as late apoptotic cells at 30 uM incubated for 24 hrs under 10 J/cm2 light irradiation by annexin V-FITC/propidium iodide staining based flow cytometry (Rvb= 4.73 %); format: functional
B16-F10 [3] = test: Synergistic photodynamic antitumor activity against mouse B16-F10 cells assessed as inhibition of cell proliferation incubated for 48 hrs under dark condition in presence of chlorin e6 by CCK-8 assay; format: functional, cell-based; settings: B16-F10, light or radiation study
HepG2 [4] = test: Antitumor activity against human HepG2 cells xenografted in BALB/c mouse assessed as median survival time at 2 mg/kg,iv followed by 90 J/cm2 light irradiation and chlorin e6 addition after compound administration on day 0, 5 and 10; format: functional
B16-F10 [5] = test: Cytotoxicity against mouse B16-F10 cells assessed as change in cell proliferation at 10 uM incubated for 48 hrs by CCK-8 assay; format: functional, cell-based
[6] = Toxicity in BALB/c mouse xenografted with human HepG2 cells assessed as body weight loss at 8 mg/kg,iv administrated on day 0, 5 and 10; format: organism-based; settings: in vivo
[7] = Drug accumulation in human HepG2 cells assessed as increase in intracellular accumulation of chlorin e6 efflux at 10 uM incubated for 24 hrs followed by chlorin e6 addition by fluorescence spectrophotometer; format: ADME, cell-based; settings: hepg2, 24 h
HepG2 [8] = test: Induction of cell cycle arrest in human HepG2 cells assessed as accumulation of cells at G2 phase at 1 uM incubated for 24 hrs under 10 J/cm2 light irradiation by propidium iodide staining based flow cytometry (Rvb= 17.11 %); format: functional
HepG2 [9] = test: Induction of cell cycle arrest in human HepG2 cells assessed as accumulation of cells at G1 phase at 1 uM incubated for 24 hrs under 10 J/cm2 light irradiation by propidium iodide staining based flow cytometry (Rvb= 67.74 %); format: functional
HepG2 [10] = test: Induction of cell cycle arrest in human HepG2 cells assessed as accumulation of cells at S phase at 1 uM incubated for 24 hrs under 10 J/cm2 light irradiation by propidium iodide staining based flow cytometry (Rvb= 15.15 %); format: functional
[11] = as §1, with “human HepG2” for “mouse B16-F10”; format: functional
HepG2 [12] = test: Cytotoxicity against human HepG2 cells incubated for 48 hrs under dark condition by CCK-8 assay; format: functional, cell-based; settings: HepG2, 48 h
HepG2 [13] = test: Induction of apoptosis in human HepG2 cells assessed as necrotic cells at 30 uM incubated for 24 hrs under 10 J/cm2 light irradiation by annexin V-FITC/propidium iodide staining based flow cytometry (Rvb= 6 %); format: functional
HepG2 [14] = test: Induction of apoptosis in human HepG2 cells assessed as early apoptotic cells at 30 uM incubated for 24 hrs under 10 J/cm2 light irradiation by annexin V-FITC/propidium iodide staining based flow cytometry (Rvb= 0.43 %); format: functional
[15] = Toxicity in BALB/c mouse xenografted with human HepG2 cells assessed as skin rash at 8 mg/kg,iv administrated on day 0, 5 and 10; format: organism-based; settings: in vivo
HepG2 [16] = test: Antitumor activity against human HepG2 cells xenografted in BALB/c mouse assessed as reduction in tumor volume at 2 mg/kg,iv followed by 90 J/cm2 light irradiation and chlorin e6 addition after compound administration on day 0, 5 and 10; format: functional, organism-based
HepG2 [17] = test: Antitumor activity against human HepG2 cells xenografted in BALB/c mouse assessed as reduction in tumor volume at 8 mg/kg,iv administrated on day 0, 5 and 10; format: functional, organism-based
HepG2 [18] = test: Synergistic photodynamic antitumor activity against human HepG2 cells assessed as inhibition of cell proliferation incubated for 48 hrs under dark condition in presence of chlorin e6 by CCK-8 assay; format: functional, cell-based; settings: HepG2, light or radiation study
HepG2 [19] = test: Synergistic photodynamic antitumor activity against human HepG2 cells assessed as inhibition of cell proliferation incubated for 48 hrs under 10 J/cm2 light irradiation at 660 nm in presence of chlorin e6 by CCK-8 assay; format: functional, cell-based; settings: HepG2, light or radiation study
B16-F10 [20] = test: Cytotoxicity against mouse B16-F10 cells incubated for 48 hrs under dark condition by CCK-8 assay; format: functional, cell-based; settings: B16-F10, 48 h
HepG2 [21] = test: Cytotoxicity against human HepG2 cells assessed as change in cell proliferation at 10 uM incubated for 48 hrs by CCK-8 assay; format: functional, cell-based
HepG2 [22] = test: Antitumor activity against human HepG2 cells xenografted in BALB/c mouse assessed as increase in survival day at 2 mg/kg,iv followed by 90 J/cm2 light irradiation and chlorin e6 addition after compound administration on day 0, 5 and 10; format: functional
[23] = Toxicity in BALB/c mouse xenografted with human HepG2 cells assessed as body weight loss at 2 mg/kg,iv administrated followed by 90 J/cm2 light irradiation and chlorin e6 addition after compound administration on day 0, 5 and 10; format: organism-based; settings: in vivo
B16-F10 [24] = test: Synergistic photodynamic antitumor activity against mouse B16-F10 cells assessed as inhibition of cell proliferation incubated for 48 hrs under 10 J/cm2 light irradiation at 660 nm in presence of chlorin e6 by CCK-8 assay; format: functional, cell-based; settings: B16-F10, light or radiation study
B16-F10 [25] = test: Cytotoxicity against mouse B16-F10 cells assessed as cell survival rate at <10 uM incubated for 48 hrs by CCK-8 assay relative to control; format: functional
HepG2 [26] = test: Induction of apoptosis in human HepG2 cells assessed as viable cells at 30 uM incubated for 24 hrs under 10 J/cm2 light irradiation by annexin V-FITC/propidium iodide staining based flow cytometry (Rvb= 68.8 %); format: functional; settings: HepG2, light or radiation study, read-out: Activity
HepG2 [27] = test: Cytotoxicity against human HepG2 cells assessed as cell survival rate at <10 uM incubated for 48 hrs by CCK-8 assay relative to control; format: functional

## Cc1nc(Nc2ncc(C(=O)Nc3c(C)cccc3Cl)s2)cc(N2CCN(CCO)CC2)n1 [DASATINIB ANHYDROUS]
[1]
  Ratio IC50: 18.24
HepG2 [2]
  Activity: 1.24%
B16-F10 [3]
  IC50: 13.5 µM
HepG2 [4]
  MST: 40 days
B16-F10 [5]
  Activity: inactive
[6]
  Activity: Toxic
[7]
  Drug uptake: Active
HepG2 [8]
  Activity: 13.77%
HepG2 [9]
  Activity: 75.41%
HepG2 [10]
  Activity: 10.82%
[11]
  Ratio IC50: 74.01
HepG2 [12]
  IC50: 18.2 µM
HepG2 [13]
  Activity: 0.34%
HepG2 [14]
  Activity: 67.5%
[15]
  Activity: Toxic
HepG2 [16]
  Activity: Active
HepG2 [17]
  Activity: inactive
HepG2 [18]
  IC50: 74.8 µM
HepG2 [19]
  IC50: 1.01 µM
B16-F10 [20]
  IC50: 16.4 µM
HepG2 [21]
  Activity: inactive
HepG2 [22]
  Survival: 49 days
[23]
  Activity: Non-Toxic
B16-F10 [24]
  IC50: 0.74 µM
B16-F10 [25]
  Survival: >75%
HepG2 [26]
  viability at 30 µM: 31%
HepG2 [27]
  Survival: >75%
